Ends that are not written are not given here. PEG = not defined here

Test [1] concerns human prostate cancer cells (22RV1). The test is described as follows: scratch assay, migration of 22RV1 cells. Format: cell-based. The note with it: 22RV1, 10 μM, 48 hours; control group 25.41 ± 5.01. The method in brief: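 22RV1 monolayers (seeded 1-2×10^5 cells/well) were scratched, washed, then given 2% FBS medium with 10 μM polypeptide or PBS, triplicate wells, for 48 h. Migration rate (%) = (original − current scratch width)/original width ×100, from ≥3 images per well.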

The test system of test [2] is human liver cancer cells (HepG2). The test is described as follows: scratch assay, migration of HepG2 cells. Format: cell-based. As to conditions: HepG2, 10 μM, 48 hours; control group 71.01 ± 6.63. The method in brief:
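HepG2 monolayers scratched, then cultured 48 h in 2% FBS medium with test polypeptides at 10 μM versus PBS control, triplicate wells. Migration rate (%) computed from original versus current scratch width in images.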

In test [3] the test system is human lung cancer cells (A549) subcutaneous xenograft. The test is described as follows: lung cancer subcutaneous xenograft animal model, intravenous injection. The format is in vivo, mice (BALB/c-nu/nu). The note with it: intravenous 60 mg/kg once every other day, 20 days; for Weight of tumor (g) (mean ± SD): control 2.53 ± 0.17; for Volume of tumor (mm^3) (mean ± SD): control 3373.26 ± 581.44. In a few lines:
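Female BALB/c-nu/nu mice (4-6 weeks) inoculated subcutaneously with ~2×10^6 A549 cells; grouped once tumours exceeded 100 mm^3. Peptides given intravenously at 60 mg/kg for 20 days versus model control. Tumour weight and volume measured at dissection; body weight recorded every other day.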

Test [4] has as its system human breast cancer cells (MDA-MB-453). The experiment in a line: scratch assay, migration of MDA-MB-453 cells. Format: cell-based. As to conditions: MDA-MB-453, 10 μM, 48 hours; control group 32.42 ± 2.04. In a few lines:
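Confluent MDA-MB-453 monolayers were scratched, then treated with peptide at 10 μM in 2% FBS medium for 48 h, with a PBS control and triplicate wells. Migration rate (%) was taken as (original − current scratch width)/original width ×100 from images.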

The test system of test [5] is human breast cancer cells (MDA-MB-231). The test is described as follows: scratch assay, migration of MDA-MB-231 cells. The format is cell-based. The note with it: MDA-MB-231, 10 μM, 48 hours; control group 36.19 ± 5.15. In a few lines:
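MDA-MB-231 monolayers (1-2×10^5 cells/well) were scratched, then kept 48 h in medium with 2% FBS containing polypeptide at 10 μM, with a PBS control, in triplicate wells. Migration rate (%) was taken from scratch width: (original − current)/original ×100.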

Test [6] has as its system human pancreatic cancer cells (PANC-1). The test is described as follows: scratch assay, migration of PANC-1 cells. The format is cell-based. As to conditions: PANC-1, 10 μM, 48 hours; control group 66.65 ± 3.37. In a few lines:
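PANC-1 monolayers were scratched, then cultured for 48 h with 10 μM test compound in 2% FBS medium, in three parallel wells per group against a PBS control. Migration rate (%) was calculated as (original minus current scratch width) / original width × 100, from imaged wells.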

Test [7] has the same test system. The experiment in a line: transwell invasion assay, PANC-1 cells. The format is cell-based. As to conditions: PANC-1 transwell invasion, 10 μM, 24 hours; control group 727 ± 68. The method in brief: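 Serum-free PANC-1 cells were seeded in matrigel-coated upper chambers with complete medium below. After 4-5 hours at 37° C., peptide was added at 10 μM final. Following 24 hours, invaded cells on the lower membrane surface were fixed, crystal violet-stained, imaged and counted against untreated controls.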

The subject of test [8] is human breast cancer cells (MCF-7). The test is described as follows: scratch assay, migration of MCF-7 cells. Format: cell-based. As to conditions: MCF-7, 10 μM, 48 hours; control group 30.97 ± 1.79. The method in brief: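 MCF-7 monolayers scratched, then cultured 48 hours in 2% FBS medium with test peptide at 10 μM versus PBS control, triplicate wells. Migration rate (%) = (original − current scratch width)/original width × 100, measured from images.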

For “N22: SEQ ID NO: 1 with substitution A7R, deletion of three amino acids at the amino terminal and of positions 15-18 (RFLRKENVTQD)”, the “Migration rate (%) (mean ± SD, P)” value in test [1] is recorded as 6.10 ± 2.72,** %; in test [2] it was 18.61 ± 8.35,*** %; in test [4], 8.54 ± 1.57,** %; in test [5], 16.94 ± 3.17,* %; in test [6] it was 11.44 ± 8.52,*** %; in test [8], 8.79 ± 3.01,** %. In addition, in test [3], the “Weight of tumor (g) (mean ± SD)” value is listed as 0.89 ± 0.19 g. Moreover, the “Volume of tumor (mm^3) (mean ± SD)” value in test [3] was determined as 1288.08 ± 577.81 mm^3. Besides, the “Number of cells (mean ± SD, P), invaded cells” value (shortened to “Number of cells (mean ± SD, P)”) in test [7] is 220 ± 65,****.

For “N23: SEQ ID NO: 1 with substitution A7R, deletion of position 11 and of positions 15-18 (YRVRFLRKENTQDAED)”, the “Migration rate (%) (mean ± SD, P)” value is listed as 5.7 ± 3.23,** % in test [1]; 17.22 ± 7.12,*** % in test [2]; 18.2 ± 3.53,** % in test [4]; 14.39 ± 2.33,** % in test [5]; 14.16 ± 8.36,*** % in test [6]; 10.20 ± 2.86,** % in test [8]. In addition, in test [3], the “Weight of tumor (g) (mean ± SD)” value was found to be 0.65 ± 0.17 g. In test [3], the “Volume of tumor (mm^3) (mean ± SD)” value is 993.11 ± 298.65 mm^3. For the same substance, in test [7], the “Number of cells (mean ± SD, P)” value is listed as 196 ± 26,****.

Regarding “N24: SEQ ID NO: 1 with substitution A7R, deletion of positions 1-2 and of position 18 (VRFLRKENVTQDAED)”, the “Migration rate (%) (mean ± SD, P)” value in test [1] is listed as 8.44 ± 1.63,** %; in test [2] it was 16.38 ± 6.48,*** %; in test [4] it was 15.84 ± 4.44,* %; in test [5], 20.97 ± 3.37,* %; in test [6] it was 13.99 ± 7.57,*** %; in test [8] it was 9.43 ± 1.12,** %. In test [3], the “Weight of tumor (g) (mean ± SD)” value was 0.81 ± 0.25 g. The “Volume of tumor (mm^3) (mean ± SD)” value in test [3] is given as 1099.3 ± 512.53 mm^3. Besides, the “Number of cells (mean ± SD, P)” value in test [7] is listed as 226 ± 18,****.

For the substance “N25: SEQ ID NO: 1 with substitution N18R and addition of two amino acids at the carboxyl terminal (YRVRFLAKENVTQDAEDRCT)”, the “Migration rate (%) (mean ± SD, P)” value is on record as 13.02 ± 2.27,* % in test [1]; 14.22 ± 7.10,*** % in test [2]; 21.05 ± 2.53,* % in test [4]; 12.93 ± 4.38,** % in test [5]; 25.36 ± 7.32,*** % in test [6]; 9.16 ± 2.51,** % in test [8]. In test [3], the “Weight of tumor (g) (mean ± SD)” value is given as 0.69 ± 0.21 g. The “Volume of tumor (mm^3) (mean ± SD)” value in test [3] was 1169.92 ± 572.47 mm^3. Moreover, the “Number of cells (mean ± SD, P)” value in test [7] is recorded as 247 ± 17,****.

“N26: SEQ ID NO: 1 with substitution A15R, addition of one amino acid at the amino terminal and one at the carboxyl terminal (FYRVRFLAKENVTQDREDNC)”: the “Migration rate (%) (mean ± SD, P)” value is recorded as 11.42 ± 2.08,* % in test [1]; 16.86 ± 7.90,*** % in test [2]; 6.19 ± 1.42,*** % in test [4]; 19.02 ± 5.06,* % in test [5]; 26.65 ± 6.37,*** % in test [6]; 10.43 ± 3.34,** % in test [8]. Besides, the “Weight of tumor (g) (mean ± SD)” value in test [3] worked out at 0.57 ± 0.22 g. The “Volume of tumor (mm^3) (mean ± SD)” value in test [3] came to 1163.91 ± 457.09 mm^3. Moreover, the “Number of cells (mean ± SD, P)” value in test [7] is 231 ± 18,****.

Regarding “N27: SEQ ID NO: 1 with addition of one amino acid at the carboxyl terminal and PEG modification at the carboxyl terminal (YRVRFLAKENVTQDAEDNC-{PEG}; reading uncertain)”, the “Migration rate (%) (mean ± SD, P)” value is 14.76 ± 2.79,* % in test [1]; 39.99 ± 3.19,** % in test [2]; 21.24 ± 3.73,* % in test [4]; 9.62 ± 3.01,*** % in test [5]; 27.19 ± 7.04,*** % in test [6]; 8.40 ± 2.44,** % in test [8]. For the same substance, in test [3], the “Weight of tumor (g) (mean ± SD)” value is reported as 1.14 ± 0.23 g. The “Volume of tumor (mm^3) (mean ± SD)” value in test [3] stood at 1402.37 ± 405.66 mm^3. The “Number of cells (mean ± SD, P)” value in test [7] is on record as 242 ± 35,****.

For the substance “N28: SEQ ID NO: 1 with deletion of positions 1-2 and 18 and PEG modification at the amino terminal ({PEG}-VRFLAKENVTQDAED; reading uncertain)”, the “Migration rate (%) (mean ± SD, P)” value in test [1] is reported as 15.63 ± 2.59,* %; in test [2], 12.25 ± 8.40,*** %; in test [4], 11.32 ± 5.61,** %; in test [5], 9.36 ± 1.8,** %; in test [6] it was 32.25 ± 5.40,** %; in test [8], 14.83 ± 5.38,* %. For the same substance, in test [3], the “Weight of tumor (g) (mean ± SD)” value turned out to be 0.91 ± 0.21 g. Moreover, the “Volume of tumor (mm^3) (mean ± SD)” value in test [3] is reported as 1286.52 ± 344.21 mm^3. For the same substance, the “Number of cells (mean ± SD, P)” value in test [7] is recorded as 247 ± 15,****.

As for “N29: SEQ ID NO: 1 with deletion of positions 1-5 and 15-18 and PEG modification at the amino terminal ({PEG}-LAKENVTQD; reading uncertain)”, the “Migration rate (%) (mean ± SD, P)” value in test [1] is reported as 9.99 ± 3.89,* %; in test [2], 10.62 ± 8.97,*** %; in test [4], 13.73 ± 3.29,** %; in test [5], 18 ± 4.47,* %; in test [6] it was 40.62 ± 4.97,* %; in test [8], 19.15 ± 3.04,* %. Further, in test [3], the “Weight of tumor (g) (mean ± SD)” value worked out at 1 ± 0.17 g. The “Volume of tumor (mm^3) (mean ± SD)” value in test [3] is 1365.48 ± 435.32 mm^3. For the same substance, the “Number of cells (mean ± SD, P)” value in test [7] was 213 ± 17,****.

“N30: SEQ ID NO: 1 with deletion of positions 1-5 and 15-18 and PEG modification at the carboxyl terminal (LAKENVTQD-{PEG}; reading uncertain)”: the “Migration rate (%) (mean ± SD, P)” value is recorded as 10.82 ± 2.55,* % in test [1]; 16.60 ± 7.85,*** % in test [2]; 15.77 ± 2.33,*** % in test [4]; 9.02 ± 2.02,*** % in test [5]; 16.60 ± 5.85,*** % in test [6]; 14.34 ± 4.06,* % in test [8]. The “Weight of tumor (g) (mean ± SD)” value in test [3] was determined as 1.01 ± 0.34 g. The “Volume of tumor (mm^3) (mean ± SD)” value in test [3] turned out to be 1187.13 ± 246.31 mm^3. Besides, in test [7], the “Number of cells (mean ± SD, P)” value is given as 237 ± 15,****.

For “N31: SEQ ID NO: 1 with deletion of positions 3, 4, 11 and 15-18 and PEG modification at the carboxyl terminal (YRFLAKENTQD-{PEG}; reading uncertain)”, the “Migration rate (%) (mean ± SD, P)” value is reported as 12.40 ± 2.24,* % in test [1]; 13.64 ± 7.59,*** % in test [2]; 10.49 ± 3.13,*** % in test [4]; 18.7 ± 3.05,* % in test [5]; 13.64 ± 7.59,*** % in test [6]; 9.27 ± 2.23,** % in test [8]. Also, the “Weight of tumor (g) (mean ± SD)” value in test [3] is 0.62 ± 0.2 g. Besides, in test [3], the “Volume of tumor (mm^3) (mean ± SD)” value was determined as 1439.74 ± 546.27 mm^3. In addition, the “Number of cells (mean ± SD, P)” value in test [7] is given as 365 ± 57,***.

For the origin of these results see patent US20220280594A1, “APPLICATION OF POLYPEPTIDE OR DERIVATIVE THEREOF” (CHENGDU HUITAI BIOMEDICINE CO., LTD., priority 2019, published 2022).
